{
  "source": "patent US20260137679A1",
  "about": "“GCN2 INHIBITOR FOR TREATING METASTASES” (HIBERCELL, INC., priority 2022, published 2026)",
  "key": {"[1]": {"test_system": "4T1 mouse breast cancer cell line", "test": "4T1 murine orthotopic allograft tumor model, lung metastases (H&E analysis)", "type": "in vivo", "description": "(§1) 4T1 mouse breast cancer cell line was purchased from American Type Culture Collection (ATCC). Cells were free of human and animal pathogens as tested by h-IMPACT-I and IMPACT-III. Additionally, the genetic profile of the cells matched with the ECACC reference standard as tested by STR based DNA fingerprinting assay. Cells were maintained in RPMI 1640 with 10% FBS, and cultured up to 4 passages prior to implantation. Cells were harvested at ˜80% confluence, washed twice with RPMI 1640 without FBS and suspended in RPMI 1640 without FBS at 10×10^6 cells/mL for implantation.\n(§2) Female Balb/c mice (7-8 week of age) were implanted into the right 4th mammary fat pad under Isoflurane anesthesia with 0.5×10^6 4T1 cells/mouse in a total volume of […] on Day 0 Animals were randomized into treatment groups when the average tumor volume reached 50-100 mm^3 on Day 6 post inoculation. Tumors were measured via caliper 2×/week. Tumor volume was calculated using the formula [tumor volume (mm^3)=π/6×length×width^2) Animals were sacrificed at either 7, 14, or 21 days post treatment via CO2 asphyxiation.\n(§3) Lungs were perfused with PBS through the heart to remove as much blood as possible prior to collection. Spleens were collected and weighed. […] The remaining lungs were collected with remaining spleen in RPMI medium+5% FBS on ice for flow cytometry. Separate animals were enrolled for lung IHC analyses. Following euthanasia of these animals, lungs were inflated with 10% neutral buffered formalin prior to formalin fixation for 48 hours and paraffin embedding.\nMultiple paraffin sections more than 200 μm apart were cut for each lung sample. […] Images were analyzed using custom-written macros in ImageJ/FIJI (NIH) analyzing the relative proportion of tumor regions to the whole lung area. The tumor regions were transferred onto the images of immune-stained sections and intensities of ASNS and PSAT1 signals within these tumor regions were quantified. […]"}, "primary 4T1 tumors": {"test_system": "primary 4T1 tumors", "test": "4T1 orthotopic allograft, primary tumor volume", "type": "in vivo, mouse", "settings": "PO, BID; three independent studies; FIG. 4", "description": "as §1, §2"}, "[2]": {"test_system": "ISR-induced amino acid biosynthesis proteins ASNS and PSAT1", "test": "IHC of ISR-induced proteins in lungs of 4T1 tumor-bearing mice", "type": "in vivo, mouse", "settings": "3 mg/kg HC-7366; 21 days post treatment initiation; FIG. 7B", "method": "as §3\nMultiple paraffin sections more than 200 μm apart were cut for each lung sample. Three sections were stained with H&E on Leica Autostainer while one adjacent section was immuno-stained for ASNS (Cell Signaling #92479) and PSAT1 (Proteintech #10501-1-AP) using the Bond Rx stainer (Leica Biosystems). Stained slides were digitized using Versa 200 slide scanner (Leica Biosystems). Images were analyzed using custom-written macros in ImageJ/FIJI (NIH) analyzing the relative proportion of tumor regions to the whole lung area. The tumor regions were transferred onto the images of immune-stained sections and intensities of ASNS and PSAT1 signals within these tumor regions were quantified. (Graphing and statistics were performed using Prism Graphpad)."}, "[3]": {"test_system": "ISR-induced proteins (PSAT1, ATF4, TRIB3, ASNS)", "test": "JESS measurement of ISR-induced proteins in primary 4T1 tumors", "type": "in vivo, mouse", "settings": "3 mg/kg HC-7366; 7 days post treatment initiation; FIG. 7C", "method": "A small (lentil-sized) piece of frozen tumor was lysed in 500 μl of lysis buffer containing 2% SDS, 10% betamercaptoethanol, protease and phosphatase inhibitors (Roche, 04 693 159 001 and 04 906 837 001), and 1× Benzonase (Sigma, E1014-25KU). Each sample was homogenized using a polytron (PT 10-35 GT) for 30 seconds, and heated at 95° C. for 5 minutes. Protein concentrations were determined using a 660 nm Protein assay (Pierce, 22662), with the detergent compatibility reagent (Pierce, 22663), according to manufacturer instructions.\nProtein samples were analyzed by JESS (ProteinSimple) using the 12-230 kDa separation module (ProteinSimple, SM-W004), and antibodies targeting PSAT1 (Proteintech, 10501-1-AP), ATF4 (AbCam, ab184909), TRIB3 (Proteintech, 66702-1), and ASNS (Proteintech, 14681-1-AP)."}, "[4]": {"test": "Spleen weight (splenomegaly) in 4T1 allografted mice", "type": "in vivo, mouse", "settings": "especially at the activating 3 mg/kg dose level; 3 independent studies; FIG. 8B", "method": "as §3"}, "[5]": {"test_system": "myeloid cells (immune gene transcripts)", "test": "Quantigene gene expression analysis of tumors and spleens of 4T1 mice", "type": "in vivo, mouse", "settings": "Day 21 of Tx, FIG. 9", "method": "Mouse tumor and spleen tissues were snap frozen and stored in −80° C. freezer. The frozen tissue was soaked in 10× volume of the RNAlater®-ICE (ThermoFisher) at −20° C. for >16 hr. Then the tissue was transferred into M tube (Miltenyi Biotech) containing RLT lysis buffer (Qiagen) and homogenized by gentleMACS Dissociators with program of RNA_02 (Miltenyi Biotech). Total RNA was isolated from homogenized tissue using the RNeasy Plus Mini Kit (Qiagen) RNA concentration was determined by Epoch Microplate Spectrophotometer (Biotek).\nA custom-made 77-plex mouse Immune QuantiGene Assay kit (ThermoFisher Scientific) using a bead-based multiplex assay were used to measure the expression of 69 immune genes, 4 stress genes plus 4 reference genes with Luminex xMAP 200 (ThermoFisher Scientific) according to the manufacturer's instructions."}, "MDSCs and T-cells": {"test_system": "MDSCs and T-cells", "test": "Flow cytometry of single cell suspensions from spleens and lungs of 4T1 mice", "type": "in vivo, mouse", "description": "Tissue processing for single cell suspensions: • Spleen: Spleens were mashed through wetted 70 μm nylon strainer using syringe plunger. Strainers were rinsed with RPMI+5% FBS. Cells were pelleted and RBCs lysed with ACK lysis buffer (Gibco) per manufacturer's instructions. Cells were resuspended in RPMI+5% FBS and counted prior to plating for staining. • Lungs: Lungs were homogenized and enzymatically digested using a Mouse Tumor Dissociation Kit (miltenyi) per manufacturer's instructions. Cells were resuspended in RPMI+5% FBS and counted prior to plating for staining. During the digestion at 37° C., brefeldin A (Biolegend) was included in the enzyme mix to prevent export of cytokines.\n1E6 cells per sample were plated in 96 well plates and extracellular staining was performed per standard procedures. Following extracellular staining, cells were fixed and permeabilized using FoxP3/Transcription Factor Staining Buffer Kit (Tonbo) and intracellular staining was performed per standard procedures. The following antibodies were used.\nFollowing staining, flow cytometry was performed on a Cytek Aurora cytometer and analyzed using FlowJo software."}, "[6]": {"test_system": "BM-derived MDSCs / T-cells", "test": "Ex vivo co-culture of bone marrow-derived MDSCs with purified T-cells in tryptophan-depleted medium", "type": "cell-based, mouse", "settings": "0.1 μM HC-7366, 1:8 MDSCs:T-cells, FIG. 11B", "method": "Single cell suspensions from mouse bone marrow were prepared. Cells were cultured in RPMI complete medium supplemented with GMCSF & IL6 (10 μg/mL) for 4 days to differentiate cells into PMN-MDSCs. T-cells were purified from mouse spleens with EasySep Mouse T-cell isolation kit per manufacturer's instructions Purified T-cells cells were then stained with CellTrace Violet dye (thermo) per manufacturer's instructions. Differentiated MDSCs and purified T-cells were co-cultured in tryptophan-depleted medium+/−HC-7366 (0.1 μM) for […], at a ratio of 1:8 MDSCs:T-cells. Proliferation of T-cells was measured by dilution of CTV via flow cytometry on a BD LSR Fortessa."}, "[7]": {"test_system": "CD4 and CD8 T-cells, S100A8/S100A9 in CD11b+ cells", "test": "Multiplex imaging of FFPE lung samples from 4T1 allografted mice", "type": "in vivo, mouse", "method": "Slides were cut from FFPE lung samples. Slides were deparaffinized, rehydrated and heat mediated antigen retrieval was conducted with AR6 buffer (Akoya). Slides were blocked with Roche diagnostics antibody diluent (Fisher) and stained with primary antibodies for 1 hr at 110 rpm. HRP-conjugated secondary antibodies were added for 10 mins at 110 rpm followed by 10 mins with OPAL detection dye (Akoya). For multiplex staining, this process was repeated starting at the antigen retrieval stage. Multispectral Images were captured on the Polaris imaging system (Akoya) and spectral unmixing and cell segmentation was performed using Inform Tissue Finder software (Akoya). Imaging data was converted into .csv files and imported into Flowjo for immune phenotyping.\nPrimary antibodies used were rat anti-mouse CD4 (clone 4SM95, Thermo 14-9766-82-82, paired with Opal 620), rabbit anti-mouse Ki67 (clone SP6, Thermo MA5-14520, paired with Opal 780), rabbit anti-mouse CD8a (clone D4W2Z, Cell Signaling 98941, paired with Opal 520). Rabbit anti-mouse S1008A (Polyclonal, Proteintech 15792-1-AP, paired with Opal 520), rabbit anti-mouse S1009A (Polyclonal, Proteintech 26992-1-AP, paired with Opal 570), rabbit anti-mouse CD11b (clone EPR1344, Abcam 133357, paired with Opal 690)."}, "S100A8 and S100A9": {"test_system": "S100A8 and S100A9", "test": "S100A8 and S100A9 levels in PBMCs and plasma of 4T1 allografted mice", "type": "in vivo, mouse", "settings": "FIG. 15C"}, "[8]": {"settings": "3 mg/kg HC-7366, Day 14, FIGS. 10B-10C"}, "[9]": {"settings": "4T1 allografted mice, FIGS. 15A-15B"}, "[10]": {"settings": "greater in metastatic lesions than in normal tissue, FIGS. 12E-12F"}},
  "data": [
    {"smiles": "CNC(=O)c1ncn2cc(-c3c(F)ccc(NS(=O)(=O)c4cc(Cl)cnc4OC)c3F)ncc12", "note": "[HC-7366, 6-(3-((5-chloro-2-methoxypyridine)-3-sulfonamido)-2,6-difluorophenyl)-N-methylimidazo[1,5-a]pyrazine-1-carboxamide]", "values": [
      {"measurement": "overall metastatic area in lung samples", "setting": "[1]; 30 mg/kg HC-7366, 4T1 allografted mice, FIGS. 1A-1B", "result": "significant reduction in overall metastatic area"},
      {"measurement": "anti-metastatic effect in lungs of tumor bearing mice", "setting": "[1]; 1-3 mg/kg HC-7366, PO, BID, lungs collected 21 days after treatment initiation, FIGS. 5A-5C", "result": "consistent anti-metastatic effect"},
      {"measurement": "number of lung metastases", "setting": "[1]; combination therapy of HC-7366 with anti-PD-1 therapy, FIG. 2", "result": "significant reduction in the number of lung metastases"},
      {"measurement": "efficacy on primary 4T1 tumors (tumor volume)", "setting": "primary 4T1 tumors", "result": "little to no efficacy"},
      {"measurement": "ASNS expression in lungs (IHC)", "setting": "[2]", "result": "Significant increases"},
      {"measurement": "PSAT1 expression in lungs (IHC)", "setting": "[2]", "result": "Significant increases"},
      {"measurement": "ASNS protein in primary 4T1 tumors (JESS)", "setting": "[3]", "result": "Increases"},
      {"measurement": "ATF4 protein in primary 4T1 tumors (JESS)", "setting": "[3]", "result": "Increases"},
      {"measurement": "PSAT1 protein in primary 4T1 tumors (JESS)", "setting": "[3]", "result": "Increases"},
      {"measurement": "TRIB3 protein in primary 4T1 tumors (JESS)", "setting": "[3]", "result": "Increases"},
      {"measurement": "splenomegaly (spleen weight)", "setting": "[4]", "result": "significantly decreases splenomegaly"},
      {"measurement": "gene expression in MDSC-enriched spleens", "setting": "[5]; 3 mg/kg HC-7366", "result": "consistent increases in immune activation transcripts and reductions in inhibitory transcripts"},
      {"measurement": "gene expression in tumor tissue", "setting": "[5]", "result": "did not show consistent effects"},
      {"measurement": "CD86 on MDSCs in the spleen and lungs", "setting": "MDSCs and T-cells; [8]", "result": "significantly increased"},
      {"measurement": "MHCII on MDSCs in the spleen and lungs", "setting": "MDSCs and T-cells; [8]", "result": "significantly increased"},
      {"measurement": "CD98 expression on CD8 T-cells in the lungs", "setting": "MDSCs and T-cells; 3 mg/kg HC-7366, FIG. 14A", "result": "not on CD8 T-cells"},
      {"measurement": "CD98 expression on MDSCs in the lungs", "setting": "MDSCs and T-cells; 3 mg/kg HC-7366, FIG. 14A", "result": "significantly increased"},
      {"measurement": "CD98 expression on MDSCs and CD8 T-cells in the spleen", "setting": "MDSCs and T-cells; 3 mg/kg HC-7366, both cell subsets, FIG. 14B", "result": "increased CD98 expression"},
      {"measurement": "MDSC frequency in spleens and lungs", "setting": "MDSCs and T-cells; 3 mg/kg HC-7366, both organs, FIG. 10A", "result": "significantly reduced"},
      {"measurement": "activation markers of CD4 and CD8 T-cells in lungs (intracellular flow cytometry)", "setting": "MDSCs and T-cells; Day 21 of Tx, FIGS. 13A-13B", "result": "significantly increased activation markers"},
      {"measurement": "activation markers of CD4 and CD8 T-cells in spleens (intracellular flow cytometry)", "setting": "MDSCs and T-cells; Day 21 of Tx, FIGS. 13C-13D", "result": "not in spleens"},
      {"measurement": "T-cell proliferation in the presence of BM-derived MDSCs (CTV dilution)", "setting": "[6]", "result": "significantly rescued T-cell proliferation"},
      {"measurement": "S100A8 and S100A9 levels in lung metastases", "setting": "[7]; [9]", "result": "significant reductions"},
      {"measurement": "S100A8 and S100A9 levels in normal lung tissue", "setting": "[7]; [9]", "result": "significant reductions"},
      {"measurement": "CD8 T-cells in metastatic lesions of lung", "setting": "[7]; HC-7366 treated 4T1 allografted mice, FIG. 12C", "result": "significantly increased"},
      {"measurement": "CD8 T-cells in normal lung tissue", "setting": "[7]; HC-7366 treated 4T1 allografted mice, increase compared with that in metastatic lesions, FIG. 12D", "result": "to a lesser degree"},
      {"measurement": "Ki67 expression of CD4 T-cells in lung", "setting": "[7]; [10]", "result": "significantly increased Ki67 expression"},
      {"measurement": "Ki67 expression of CD8 T-cells in lung", "setting": "[7]; [10]", "result": "significantly increased Ki67 expression"},
      {"measurement": "S100A8 and S100A9 levels in PBMCs", "setting": "S100A8 and S100A9", "result": "significant reductions"},
      {"measurement": "S100A8 and S100A9 levels in plasma", "setting": "S100A8 and S100A9", "result": "significant reductions"}
    ]}
  ]
}
